Experimental data published in patent US8853359B2, “Endokinin C/D-derived peptides” (University of Miyazaki, priority 2009, dated 2014).
Ends that are not written are not given here.

Columns and labels:
[1] = tested on: substance P-induced scratching behavior; assay: substance P-induced scratching behavior after intrathecal pre-administration of test peptide; type: in vivo, rat
Experimental: In Example 1, 10^−3M (10 nmol/10 μl) EKC/D or D-EKC/D (1), (2) or (3) was administered to intrathecally catheterized rats via catheters. After the predetermined time periods denoted on the horizontal axis in FIG. 1, the numbers of scratching events (scratching behavior) induced by intrathecal administration of 10^−3M (10 nmol/10 μl) substance P (hereafter, referred to as “SP”) were determined. Here, the expression “10^−3M (10 nmol/10 μl) EKC/D or D-EKC/D (1), (2), or (3) was administered” refers to a situation in which 10 μl in total of a solution (that is, 10^−3M solution) containing 10 nmol of EKC/D or D-EKC/D (1), (2), or (3) was all administered. The expression, “ . . . administration of 10^−3M substance P (10 nmol/10 μl)” refers to a situation in which 10 μl in total of a solution (that is, 10^−3M solution) containing 10 nmol of the substance was all administered. The same similarly applies below.
Meanwhile, saline (10 μl) was intrathecally administered to intrathecally catheterized rats via catheters and then, after 30 minutes, 10^−3M SP (10 nmol/10 μl) was intrathecally administered to the rats. The number of the thus induced scratching events was determined to be the number of scratching events in the control group. The control group is denoted with saline-4-SP in FIG. 1.
The vertical axis of the graph in FIG. 1 indicates changes in the numbers of scratching events (represented by relative values) due to administration of 10^−3M EKC/D or D-EKC/D (1), (2), or (3) when the number of scratching events (of untreated rats in a control group) induced by intrathecal administration of 10^−3M substance P was determined to be 100%. Meanwhile, the horizontal axis indicates the intervals between the administration of EKC/D, D-EKC/D (1), (2), or (3) and 10^−3M substance P. […]
The test was conducted with procedures similar to those in Example 1, except for 4 hours of interval between the administration of each test peptide and the administration of substance P. The concentration of each test peptide and that of substance P for administration were determined to be 10^−3M (10 nmol/10 μl), similarly to Example 1. The number of scratching events in the control group was determined with procedures similar to those in Example 1, such that substance P was administered at 30 minutes after administration of saline (10 μl) and then the number was determined.

[2] = tested on: formalin-induced pain behavior; assay: formalin-induced pain behavior (flinching) after intrathecal pre-administration of peptide; type: in vivo, rat
Experimental: In Example 5, 10^−3M (10 nmol/10 μl) D-EKC/D (3), (5), or (7), Spantide I, or saline (10 μl) was administered to intrathecally catheterized rats via catheters and then 4 hours later, 50 μl of 2% formalin was administered subcutaneously to hind paws of rats. The number of flinching (pain behavior) was determined for 60 minutes after formalin administration, so that the degree of pain could be evaluated. During the 10-minute period after formalin administration (referred to as phase I), pain behavior was measured once every 2 minutes (1 minute per measurement). During the period from 10 minutes to 60 minutes after formalin administration (referred to as phase II), pain behavior was measured once every 5 minutes (1 minute per measurement), so that the degree of pain could be evaluated. During phase I, behavior (phasic pain) resulting from chemical stimulation accompanying formalin administration was observed. During phase II, tonic pain following the phasic pain was observed.
The horizontal axis indicates time (minutes) after formalin administration and the vertical axis indicates the measured number of pain behavior per minute.

[3] = tested on: carrageenan-induced inflammation; assay: carrageenan-induced increase in paw size after intrathecal pre-administration of peptide; type: in vivo, rat
Experimental: (§1) In Example 6, 10^−3M (10 nmol/10 μl) D-EKC/D (3), (5), or (7), Spantide I, or saline (10 μl) was administered to intrathecally catheterized rats via catheters. Four hours later, 100 μl of 2% carrageenan (2 mg/100 μl) was subcutaneously administered to rat plantar.
Paw size was measured with time for 60 minutes after carrageenan administration. The paw size (control) before carrageenan administration was designated as the basal level, and the increases in paw size were then calculated.

[4] = tested on: carrageenan-induced thermal hyperalgesia; assay: withdrawal latency to noxious thermal stimulation after carrageenan, intrathecal pre-administration of peptide; type: in vivo, rat; settings: 10^-3M (10 nmol/10 μl) peptide intrathecal; 2% carrageenan 4 hours later; FIG. 9B
Experimental: as §1
Meanwhile, noxious thermal stimulation was applied to paw plantar using infrared rays at 10-minute intervals after carrageenan administration. The time (latency period) required for withdrawal response to take place was measured. The latency period before untreated rats following noxious thermal stimulation was designated as the control latency period.

[5] = tested on: carrageenan-induced inflammation; assay: carrageenan-induced increase in paw size, EKC/D injected 1 hour after carrageenan; type: in vivo, rat
Experimental: The vertical axis of the graph in FIG. 4 indicates increases (%) in paw size and the horizontal axis indicates the time after administration of saline (100 μl: saline) or EKC/D with “minutes,” thereby showing the time course changes of anti-inflammatory effects of EKC/D administration on carrageenan-induced inflammation. The paw size before carrageenan administration was determined to be 100%. Paw size was increased by about 50% (saline) as measured using a paw size meter at 1 hour after carrageenan injection. This state continued for about 60 minutes (saline). […] When 10^−3M EKC/D (100 nmol/100 μl) was injected, paw size had decreased to about 40% at 10 minutes after, to about 20% at 30 minutes after, and to about 40% at 50 minutes after injection.

[6] = tested on: carrageenan-induced thermal hyperalgesia; assay: carrageenan-induced thermal hyperalgesia (withdrawal latency), EKC/D injected 1 hour after carrageenan; type: in vivo, rat
Description: Intraplantar injection of carrageenan induces thermal hyperalgesia accompanying inflammation. To examine induction of thermal hyperalgesia, noxious thermal stimulation was applied to plantar using infrared rays. It can be said that thermal hyperalgesia takes place when the latency period of the withdrawal response becomes shorter than that for untreated rats. In FIG. 5, the vertical axis of the graph indicates the latency period in seconds and the horizontal axis of the graph indicates the time after injection of saline or EKC/D in minutes. The latency period in untreated rats (control) after noxious thermal stimulation was about 21 seconds. When saline (100 μl) was injected at 1 hour after carrageenan injection, the latency period was about 13 seconds. […] This state was sustained for 60 minutes (saline). […] When 10^−5M (1 nmol/100 μl) and 10^−6M ([…]) EKC/D were injected, the latency period before rats responded to noxious thermal stimulation was about 17 seconds, which was longer than that in the case of treatment with saline (EKC/D10^−5 M and EKC/D 10^−6 M).

[7] = tested on: scratching behavior and thermal hyperalgesia induced by SP or EKA/B; settings: Non-patent document 3, cited from earlier work

Question: For “Glu-His-Thr-Phe-Gln-DTrp-Leu-Leu-NH2 (EHTFQXLL; HELM PEPTIDE1{E.H.T.F.Q.[dW].L.L.[am]}$$$$V2.0; N-terminus assumed; SMILES CC(C)C[C@H](NC(=O)[C@H](CC(C)C)NC(=O)[C@@H](Cc1c[nH]c2ccccc12)NC(=O)[C@H](CCC(N)=O)NC(=O)[C@H](Cc1ccccc1)NC(=O)[C@@H](NC(=O)[C@H](Cc1c[nH]cn1)NC(=O)[C@@H](N)CCC(=O)O)[C@@H](C)O)C(N)=O) [D-EKC/D (5)]”, which “scratching behavior induced by substance P” value ([1]; Example 2, FIG. 2, 10^-3M peptide, SP 4 hours after peptide, control about 380 scratching) is on record?
Answer: almost never induced

Question: And the “suppressive effects on scratching as administration interval is prolonged” value ([1]; Example 2, FIG. 2, 10^-3M peptide, interval 8 hours and then 14 hours)?
Answer: gradually attenuated

Question: What about the “scratching behavior induced by substance P / suppressive effects” value ([1]; Example 3, FIG. 3, 10^-3M peptide, SP 4 hours after peptide, control 380 scratching) of the same substance?
Answer: attenuated

Question: What about the “numbers of pain behavior during phase I” value ([2]; 10^-3M (10 nmol/10 μl) peptide intrathecal, 2% formalin 4 hours later, 0-10 minutes after formalin) of the same substance?
Answer: significantly decreased

Question: What about the “numbers of pain behavior during phase II” value ([2]; 10^-3M (10 nmol/10 μl) peptide intrathecal, 2% formalin 4 hours later, 10-60 minutes after formalin) of the same substance?
Answer: significantly decreased

Question: And the “suppressing effects on formalin-induced pain behavior compared with Spantide I” value ([2]; 10^-3M intrathecal, formalin 4 hours later)?
Answer: sustained longer compared with the effects of Spantide I

Question: And the “rate of increase of paw sizes” value ([3]; 10^-3M (10 nmol/10 μl) peptide intrathecal, 2% carrageenan 4 hours later, FIG. 9A)?
Answer: significant decreases

Question: What about the “effects on paw size and withdrawal time compared with Spantide I” value ([3]; 10^-3M intrathecal, carrageenan 4 hours later) of the same substance?
Answer: sustained to a greater extent than the effects of Spantide I

Question: And the “withdrawal time (latency period)” value [4]?
Answer: significant increases

Question: With “Ala-Tyr-Gln-Leu-Glu-His-Thr-Phe-Gln-Gly-Leu-Leu-NH2 (AYQLEHTFQGLL-NH2; listed as Homo sapiens) [EKC/D]” as the substance, how does the “number of scratching events induced by substance P, relative to control group (saline+SP = 100%)” value ([1]; 10^-3M (10 nmol/10 μl) peptide intrathecal, 10^-3M SP 30 minutes after peptide, FIG. 1) read?
Answer: about 60%

Question: And the “duration of suppressive effects on substance P-induced scratching behavior” value ([1]; 10^-3M peptide intrathecal, 10^-3M SP)?
Answer: ≤ 1 h

Question: What about the “number of scratching events induced by substance P, relative to control group” value ([1]; 10^-3M peptide intrathecal, SP 1 hour after peptide, FIG. 1) of the same substance?
Answer: restored 1 hour later to the same degree as that for the control group

Question: What about the “increases in paw size accompanying inflammation due to carrageenan, overall” value ([5]; 10^-3M EKC/D (100 nmol/100 μl)) of the same substance?
Answer: significantly suppressed

Question: What about the “increase in paw size” value ([5]; 10^-3M EKC/D (100 nmol/100 μl), 10 minutes after injection, saline about 50%) of the same substance?
Answer: about 40%

Question: And the “increase in paw size” value ([5]; 10^-3M EKC/D (100 nmol/100 μl), 30 minutes after injection)?
Answer: about 20%

Question: And the “increase in paw size” value ([5]; 10^-3M EKC/D (100 nmol/100 μl), 50 minutes after injection)?
Answer: about 40%

Question: What about the “anti-inflammatory effects, overall” value ([5]; 10^-4M EKC/D (10 nmol/100 μl)) of the same substance?
Answer: weak anti-inflammatory effects

Question: What about the “increase in paw size” value ([5]; 10^-4M EKC/D (10 nmol/100 μl), 30 minutes after injection) of the same substance?
Answer: 40%

Question: What about the paw size ([5]; 10^-4M EKC/D (10 nmol/100 μl), 60 minutes after injection) of the same substance?
Answer: almost at a normal level

Question: And the “effect on paw size” value ([5]; 10^-5M EKC/D (1 nmol/100 μl))?
Answer: No clear effects

Question: What about the “effect on paw size” value ([5]; 10^-6M EKC/D (100 pmol/100 μl)) of the same substance?
Answer: No clear effects

Question: What about the “latency period following noxious thermal stimulation” value ([6]; 10^-3M EKC/D (100 nmol/100 μl), untreated about 21 seconds, saline about 13 seconds) of the same substance?
Answer: almost the same as that in the case of untreated rats

Question: And the “latency period following noxious thermal stimulation” value ([6]; 10^-4M EKC/D (10 nmol/100 μl))?
Answer: almost the same tendency as that in the case of 10^−3M EKC/D

Question: What about the “latency period following noxious thermal stimulation” value ([6]; 10^-5M EKC/D (1 nmol/100 μl)) of the same substance?
Answer: about 17 seconds

Question: What about the “latency period following noxious thermal stimulation” value ([6]; 10^-6M EKC/D (100 μmol/100 μl)) of the same substance?
Answer: about 17 seconds

Question: And the “latency period following noxious thermal stimulation” value ([6]; 10^-7M EKC/D (10 pmol/100 μl))?
Answer: almost the same as that in the case of saline

Question: What about the SP-induced hyperalgesia ([7]; 5 minutes after administration of EKC/D) of the same substance?
Answer: suppressed

Question: What about the “induction of scratching behavior or thermal hyperalgesia by the peptide itself” value ([7]; intrathecal administration to a rat) of the same substance?
Answer: does not induce

Question: What about the “scratching behavior and thermal hyperalgesia induced by administration of SP or EKA/B” value ([7]; pre-administration of the peptide, intrathecal) of the same substance?
Answer: suppresses
